Reference: US20050204416A1, “Plant cells having receptor polypeptides” (priority 2004, published 2005)

Legend:
[1] = target: T1, VP16-human estrogen receptor alpha (ERa) chimeric polypeptide (Homo sapiens, UniProt P03372, G400V)
Method: About 50 selected lines were obtained and cultured at 27° C. on N6 media containing 5 mg/ml bialaphos, with transfer to fresh media occurring about every 2 weeks. […] After incubation for about 40 hours, callus cells were examined under a dissecting microscope at 10× to 60× magnification.

[2] = target: T1, VP16-human estrogen receptor alpha (ERa) chimeric polypeptide; test: Transgenic Arabidopsis T2 seedlings containing VP16ERα and ERE-GFP constructs, green fluorescence; type: cell-based; set-up: expressed in transfected cells; host or cells: transgenic rice callus (A1); transgenic Arabidopsis T2 seedlings (A2); Agrobacterium binary vector Bin4-EUTG-10::VPCR-ER-1#81, CaMV35S promoter

T1 sequence (P03372 with tags, fused parts or gaps G400V): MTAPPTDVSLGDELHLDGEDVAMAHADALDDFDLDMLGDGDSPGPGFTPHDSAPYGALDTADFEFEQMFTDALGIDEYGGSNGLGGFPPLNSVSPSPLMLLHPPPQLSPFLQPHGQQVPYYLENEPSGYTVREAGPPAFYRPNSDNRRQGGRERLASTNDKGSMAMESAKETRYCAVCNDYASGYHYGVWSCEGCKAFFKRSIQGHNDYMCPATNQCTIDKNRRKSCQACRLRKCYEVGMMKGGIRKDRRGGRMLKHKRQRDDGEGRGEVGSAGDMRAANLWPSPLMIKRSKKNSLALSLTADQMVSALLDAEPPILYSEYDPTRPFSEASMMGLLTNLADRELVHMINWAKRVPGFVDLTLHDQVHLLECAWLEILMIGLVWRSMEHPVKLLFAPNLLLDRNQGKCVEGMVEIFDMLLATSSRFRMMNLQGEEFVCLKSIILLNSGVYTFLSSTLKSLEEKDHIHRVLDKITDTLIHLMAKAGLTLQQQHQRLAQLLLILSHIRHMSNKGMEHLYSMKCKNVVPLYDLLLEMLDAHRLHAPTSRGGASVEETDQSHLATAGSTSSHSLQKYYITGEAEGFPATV

Substance: 4-hydroxytamoxifen
- green fluorescence (GFP reporter) in the presence of the exogenous compound [1]: moderate to very bright green fluorescence
- green fluorescence (GFP reporter) of T2 seedlings [2]: moderate to strong green fluorescence
